Drawing on PubChem BioAssay (NCI), this text covers TGI for 13 compounds.

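Exposure lasted 48 hours, with cells grown in 96-well plates and compounds tested at five concentrations. The concentration for full growth arrest is given as TGI.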

Some test systems named below: SF-268 CNS; RXF 393 renal; BT-549 breast; M14 melanoma; NCI/ADR-RES ovarian; HOP-92 NSCLC; OVCAR-4 ovarian; HOP-62 NSCLC; A549 NSCLC; NCI-H226 lung; HT29 colon; CCRF-CEM leukemia.
Common to all, as to test: inhibition of tumour cell growth, NCI panel, 48 h

For the compound `CCOC(=O)/C=C(\C(=O)OCC)n1ccc(=O)n(Cc2cnnn2CCCCOC(C)=O)c1=O`, the TGI turned out to be 34.1 µM with SF-268 CNS; 2.16 µM with RXF 393 renal; 30.2 µM in the test on BT-549 breast; 38.8 µM in the test with M14 melanoma; 40.1 µM in the test on NCI/ADR-RES ovarian; 5.63 µM in the test with HOP-92 NSCLC. The TGI came to 30.2 µM in the test on OVCAR-4 ovarian; 41.9 µM with HOP-62 NSCLC; 40.2 µM in the test with A549 NSCLC; 39.4 µM in the test on NCI-H226 lung; 23.5 µM in the test on HT29 colon.
With `CC(=O)Nc1ccc2nc(-c3ccccn3)c(-c3ccccn3)nc2c1`, the TGI in the test with CCRF-CEM leukemia, in the test with SF-268 CNS, with RXF 393 renal, in the test on BT-549 breast, in the test with M14 melanoma and with NCI/ADR-RES ovarian was above 100 µM in each case. The TGI in the test on HOP-92 NSCLC, in the test on OVCAR-4 ovarian, in the test with A549 NSCLC and with NCI-H226 lung was above 100 µM throughout.
`CCOP(=O)(OCC)/C(C#N)=C/c1cccn1C(C)C`: the TGI in the test with SF-268 CNS, in the test on RXF 393 renal, in the test on BT-549 breast, in the test on M14 melanoma, with NCI/ADR-RES ovarian and in the test on HOP-92 NSCLC was above 100 µM in each case. Moreover, the TGI in the test with HOP-62 NSCLC, with A549 NSCLC, in the test on NCI-H226 lung and in the test with HT29 colon was above 100 µM throughout.
Regarding `COC1CCON1C(=O)c1ccccc1` (stereo unspecified), the TGI in the test on CCRF-CEM leukemia, in the test on SF-268 CNS, with RXF 393 renal, in the test with BT-549 breast, in the test on M14 melanoma and in the test with NCI/ADR-RES ovarian was above 10 µM throughout. In addition, the TGI in the test with OVCAR-4 ovarian, in the test on HOP-62 NSCLC, with A549 NSCLC, in the test on NCI-H226 lung and in the test with HT29 colon was above 10 µM throughout.
For `CC(Oc1ccccc1Cl)C(=O)NN1C(=O)CC(=O)N(c2ccccc2)C1=S` (stereo unspecified), the TGI was above 100 µM with SF-268 CNS; above 100 µM in the test on RXF 393 renal; above 100 µM in the test on BT-549 breast; above 100 µM in the test with M14 melanoma; above 100 µM in the test with NCI/ADR-RES ovarian; 68.8 µM in the test on HOP-92 NSCLC. For the same compound, the TGI in the test with OVCAR-4 ovarian, in the test on HOP-62 NSCLC, in the test with A549 NSCLC, in the test on NCI-H226 lung and with HT29 colon was above 100 µM in each case.
In the case of `CCOC(=O)CC(c1ccccc1)C(C)(C(=O)OCC)C(=O)OCC` (stereo unspecified), the TGI with CCRF-CEM leukemia is above 100 µM; with SF-268 CNS, above 100 µM; in the test on RXF 393 renal it was 60.9 µM; with BT-549 breast it was above 100 µM; with M14 melanoma, above 100 µM; in the test on NCI/ADR-RES ovarian, above 100 µM. The TGI in the test with OVCAR-4 ovarian, in the test on HOP-62 NSCLC, in the test with A549 NSCLC, in the test with NCI-H226 lung and in the test on HT29 colon was above 100 µM throughout.
Regarding `C1CSCCSCCCSC2CCCCC2SC1` (stereo unspecified), the TGI in the test on CCRF-CEM leukemia, in the test on SF-268 CNS, in the test with BT-549 breast, in the test with M14 melanoma, with NCI/ADR-RES ovarian and with HOP-92 NSCLC was above 100 µM in each case. Further, the TGI in the test on OVCAR-4 ovarian is above 100 µM; in the test on HOP-62 NSCLC, above 100 µM; in the test with A549 NSCLC it was above 100 µM; with HT29 colon, 60.9 µM.
In the case of `COc1ccc(OC)c(NCC(=O)Nn2cnc3ccc(S(=O)(=O)Nc4cc(OC)ccc4OC)cc3c2=O)c1`, the TGI in the test with CCRF-CEM leukemia, with SF-268 CNS, in the test on BT-549 breast, with M14 melanoma, in the test on NCI/ADR-RES ovarian and with HOP-92 NSCLC was above 100 µM in each case. The TGI in the test with OVCAR-4 ovarian, with HOP-62 NSCLC, with A549 NSCLC, with NCI-H226 lung and with HT29 colon was above 100 µM throughout.
In the case of `COc1ccccc1Cc1ccc(C2C=CC3(CC(=O)C=C3C)C(=O)C2)o1` (stereo unspecified), the TGI is 64.9 µM with SF-268 CNS; 56.3 µM with RXF 393 renal; 58.7 µM with BT-549 breast; above 100 µM in the test on M14 melanoma; above 100 µM in the test on NCI/ADR-RES ovarian; 75.6 µM in the test on HOP-92 NSCLC. Further, the TGI with OVCAR-4 ovarian was above 100 µM; in the test on HOP-62 NSCLC, 50.3 µM; in the test on A549 NSCLC, above 100 µM; in the test on NCI-H226 lung, 61.6 µM; with HT29 colon, above 100 µM.
Turning to `CC(=O)Oc1cc(S(=O)(=O)Nc2n[nH]c(Nc3ccc(C)cc3)n2)c(S)cc1Cl`, the TGI with CCRF-CEM leukemia, in the test with BT-549 breast, with M14 melanoma, in the test with NCI/ADR-RES ovarian, in the test with HOP-92 NSCLC and in the test with OVCAR-4 ovarian was above 100 µM each time. Moreover, the TGI with A549 NSCLC and in the test on HT29 colon was above 100 µM in each case.
Regarding `CC1CN=C(NS(=O)(=O)c2cc(C(=O)Nc3ccc(Cl)cc3)c(Cl)cc2S)NN1` (stereo unspecified), the TGI in the test with CCRF-CEM leukemia is above 100 µM; with SF-268 CNS, 52.1 µM; with BT-549 breast, above 100 µM; with M14 melanoma it was 69.5 µM; in the test with NCI/ADR-RES ovarian it was above 100 µM; in the test with OVCAR-4 ovarian it was above 100 µM. The TGI in the test on HOP-62 NSCLC is above 100 µM; with A549 NSCLC it was above 100 µM; in the test with NCI-H226 lung, 68.8 µM; with HT29 colon, above 100 µM.
Turning to `Cc1cc(Cl)nc2nc(Cl)c(N)cc12`, the TGI in the test with CCRF-CEM leukemia is above 19.7 µM; with SF-268 CNS it was 3.5 µM; with RXF 393 renal, above 32 µM; with BT-549 breast, 28.4 µM; in the test on M14 melanoma, 25.6 µM; in the test with NCI/ADR-RES ovarian, 58.2 µM. The TGI amounted to 4.46 µM with HOP-92 NSCLC; 8.91 µM in the test on OVCAR-4 ovarian; 19 µM with HOP-62 NSCLC; 37.2 µM in the test on A549 NSCLC; 51.7 µM with NCI-H226 lung.
Take `COC(=O)C1Cc2ccc(O)c(O)c2CN1` (stereo unspecified): the TGI in the test with CCRF-CEM leukemia is above 100 µM; in the test with RXF 393 renal it was above 100 µM; in the test on BT-549 breast it was 32.2 µM; with M14 melanoma, 29.7 µM; in the test with NCI/ADR-RES ovarian, 48.6 µM; in the test on HOP-92 NSCLC it was 86.7 µM. The TGI with OVCAR-4 ovarian was 39.3 µM; with HOP-62 NSCLC, above 100 µM; with A549 NSCLC, above 100 µM; in the test on NCI-H226 lung, above 100 µM; with HT29 colon, 55.7 µM.
